The values that follow come from PubChem BioAssay (NCI).

Among the test systems are NCI-H522 lung; COLO 205 colon; 786-0 renal; HOP-62 NSCLC; SK-OV-3 ovarian; U251 CNS; IGROV1 ovarian; T-47D breast; UO-31 renal; SK-MEL-5 melanoma.
Test in all cases: growth of human tumour cells (NCI), 48 h

Structures are written as SMILES. Values joined by “and” are separate entries in the source; they are usually repeats but may differ in a detail not shown here. Equal entries are not always repeated.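 Following 48 hours of exposure in 96-well plates, responses at five concentrations were used to interpolate endpoints linearly. TGI is the concentration that stops growth completely.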 Where only a bound is given, the exact number is not on record here.

For the compound `COC1OC(=O)C(OC)C(OC)C1OC` (stereo not given), the TGI with NCI-H522 lung, in the test with COLO 205 colon, in the test with 786-0 renal, with HOP-62 NSCLC, in the test with SK-OV-3 ovarian and with U251 CNS was greater than 100 µM in each case. For the same compound, the TGI in the test on IGROV1 ovarian, with T-47D breast, in the test on UO-31 renal and in the test with SK-MEL-5 melanoma was greater than 100 µM in each case.
For the compound `Cc1cccc(-c2cc(=O)c3cc(C)cnc3[nH]2)c1`, the TGI is 0.259 µM in the test on NCI-H522 lung; 0.382 µM with COLO 205 colon; greater than 100 µM in the test with 786-0 renal; greater than 100 µM in the test with HOP-62 NSCLC; greater than 29.6 µM in the test on SK-OV-3 ovarian; greater than 100 µM in the test with U251 CNS. Further, the TGI in the test with IGROV1 ovarian is greater than 100 µM; in the test with T-47D breast it was greater than 100 µM; with UO-31 renal, greater than 100 µM; in the test with SK-MEL-5 melanoma, 21 µM.
Regarding `CN1C(=O)[C@](C)(Cc2ccc(F)cc2)N(C(=O)OC(C)(C)C)[C@@H]1C(C)(C)C`, the TGI with NCI-H522 lung is 46.9 µM; with COLO 205 colon, 39.7 µM; in the test on 786-0 renal it was 68.4 µM; in the test on HOP-62 NSCLC, greater than 100 µM; in the test with SK-OV-3 ovarian, greater than 100 µM; in the test on U251 CNS it was greater than 100 µM. Moreover, the TGI is greater than 100 µM with IGROV1 ovarian, 90.1 µM in the test with T-47D breast, greater than 100 µM in the test with UO-31 renal and 37.6 µM with SK-MEL-5 melanoma.
In the case of `CC(C)(C)C1=CC(O)(c2c3ccccc3c(C3(O)C=C(C(C)(C)C)C(=O)C(C(C)(C)C)=C3)c3ccccc23)C=C(C(C)(C)C)C1=O`, the TGI with NCI-H522 lung, in the test with COLO 205 colon, in the test with 786-0 renal, in the test on HOP-62 NSCLC, with SK-OV-3 ovarian and in the test on U251 CNS was greater than 100 µM throughout. Further, the TGI with IGROV1 ovarian, with T-47D breast, in the test with UO-31 renal and with SK-MEL-5 melanoma was greater than 100 µM throughout.
As for `COc1ccc(C(OCC2OC(n3ccc(Oc4c(F)c(F)c(F)c(F)c4F)nc3=O)CC2OP(OCCC#N)N(C(C)C)C(C)C)(c2ccccc2)c2ccc(OC)cc2)cc1` (stereo not given), the TGI with NCI-H522 lung, with COLO 205 colon, with 786-0 renal, in the test with HOP-62 NSCLC, in the test on SK-OV-3 ovarian and in the test on U251 CNS was greater than 100 µM throughout. In addition, the TGI in the test with IGROV1 ovarian, in the test with T-47D breast, in the test with UO-31 renal and with SK-MEL-5 melanoma was greater than 100 µM each time.
With `O=C1CCc2c(sc3ncnc(Nc4cccc(Br)c4)c23)C1`, the TGI was 6.17 µM with NCI-H522 lung; 20.8 µM in the test with COLO 205 colon; 19 µM with 786-0 renal; 18.7 µM with HOP-62 NSCLC; 20.1 µM in the test with SK-OV-3 ovarian; 9.02 µM in the test with U251 CNS. The TGI turned out to be 12.6 µM in the test with IGROV1 ovarian, 6.17 µM in the test with T-47D breast, 5.23 µM in the test with UO-31 renal and 3.67 µM with SK-MEL-5 melanoma.
Regarding `Nc1nn2cc(-c3ccccc3)[n+](CC(=O)c3ccccc3)c2s1`, the TGI in the test with NCI-H522 lung was 26.1 µM; in the test with COLO 205 colon it was 29.3 µM; in the test on 786-0 renal, 40.2 µM; in the test on HOP-62 NSCLC, 87.5 µM; with SK-OV-3 ovarian, greater than 100 µM; in the test on U251 CNS, 29.6 µM. The TGI with IGROV1 ovarian was greater than 100 µM; with T-47D breast, 55 µM; in the test with UO-31 renal, greater than 100 µM; in the test on SK-MEL-5 melanoma, 73.8 µM.
With `CCOC(=O)CCC1(C(=O)O[C@@H]2C[C@H](C)CC[C@H]2C(C)C)CCCCC1=O` (stereo not given in full), the TGI in the test on NCI-H522 lung, with COLO 205 colon, in the test with 786-0 renal, in the test with HOP-62 NSCLC, in the test with SK-OV-3 ovarian and in the test on U251 CNS was greater than 100 µM each time. Further, the TGI with IGROV1 ovarian, in the test on T-47D breast, with UO-31 renal and in the test on SK-MEL-5 melanoma was greater than 100 µM throughout.
`CC1=NNC(N)=N/C1=C\C(Sc1ccc(Cl)cc1)c1ccc(Cl)cc1Cl` (stereo not given): the TGI in the test with NCI-H522 lung is 18.6 µM; with COLO 205 colon it was 50.4 µM; in the test with 786-0 renal, 75.9 µM; in the test on HOP-62 NSCLC, 57.8 µM; in the test on SK-OV-3 ovarian, 41.9 µM; in the test with U251 CNS it was greater than 57.1 µM. In addition, the TGI was found to be 21.9 µM in the test with IGROV1 ovarian, 38.8 µM with T-47D breast, 27 µM in the test on UO-31 renal and 40.1 µM in the test with SK-MEL-5 melanoma.
`CCOC(=O)C1=C(C)N(c2ccc(Cl)cc2)C2(O)C=CC(=O)C3C(=O)N(c4ccccc4)C(=O)C132` (stereo not given): the TGI in the test on NCI-H522 lung was determined as 2.38 µM; in the test with COLO 205 colon, 3.26 µM; with 786-0 renal, 3.09 µM; in the test with HOP-62 NSCLC, 4.19 µM; in the test with SK-OV-3 ovarian, 8.27 µM; in the test with U251 CNS it was 5.39 µM. For the same compound, the TGI in the test on IGROV1 ovarian came to 3.11 µM; with T-47D breast, 6.55 µM; in the test with UO-31 renal it was 3.31 µM; with SK-MEL-5 melanoma it was 3.47 µM.
Consider `Cc1nc2cccc(F)c2c(=O)n1-c1nnc(C2CC2)s1`, for which the TGI in the test with NCI-H522 lung, in the test on COLO 205 colon, with 786-0 renal, in the test with HOP-62 NSCLC, in the test with SK-OV-3 ovarian and in the test with U251 CNS was greater than 10 µM in each case. For the same compound, the TGI in the test with IGROV1 ovarian, in the test on T-47D breast, with UO-31 renal and in the test with SK-MEL-5 melanoma was greater than 10 µM in each case.
For the compound `CC(=O)OC1COC(n2c(N)c(C#N)c(-c3ccccc3)c(C#N)c2=S)C(OC(C)=O)C1OC(C)=O` (stereo not given), the TGI with NCI-H522 lung, in the test on COLO 205 colon, in the test with 786-0 renal, in the test with HOP-62 NSCLC, with SK-OV-3 ovarian and in the test on U251 CNS was greater than 100 µM throughout. Further, the TGI in the test with IGROV1 ovarian is greater than 100 µM; with T-47D breast it was greater than 100 µM; in the test with UO-31 renal, > 100 µM and 67.8 µM; in the test on SK-MEL-5 melanoma, > 100 µM and 95.4 µM.
Consider `O=C(Nc1ccccc1C(=O)O)C(=Cc1ccccc1O)NC(=O)c1ccccc1`, for which the TGI in the test on NCI-H522 lung, with COLO 205 colon, in the test with 786-0 renal, with HOP-62 NSCLC, in the test on SK-OV-3 ovarian and in the test with U251 CNS was greater than 100 µM throughout. Moreover, the TGI in the test with IGROV1 ovarian, with T-47D breast, with UO-31 renal and in the test on SK-MEL-5 melanoma was greater than 100 µM throughout.
For `CCN(CC)CCC1(C(=O)OC)SCCc2ccc(C)cc21` (stereo not given), the TGI with NCI-H522 lung, with COLO 205 colon, in the test with 786-0 renal, with HOP-62 NSCLC, with SK-OV-3 ovarian and in the test on U251 CNS was greater than 100 µM throughout. Further, the TGI in the test on IGROV1 ovarian, in the test on T-47D breast, in the test with UO-31 renal and in the test on SK-MEL-5 melanoma was greater than 100 µM in each case.
For the compound `COc1nc2ncc([C@@H](O)[C@H](O)CO)nc2c(=O)[nH]1`, the TGI with NCI-H522 lung, in the test with COLO 205 colon, in the test with 786-0 renal, in the test with HOP-62 NSCLC, in the test on SK-OV-3 ovarian and in the test on U251 CNS was greater than 100 µM each time. Also, the TGI in the test with IGROV1 ovarian, in the test on T-47D breast, in the test with UO-31 renal and with SK-MEL-5 melanoma was greater than 100 µM in each case.
`CSC(=N/N=C(\C)c1ccc(S(=O)(=O)N(C)c2ccccc2)cc1)SC`: the TGI in the test with NCI-H522 lung, in the test on COLO 205 colon, in the test on 786-0 renal, in the test with HOP-62 NSCLC, with SK-OV-3 ovarian and with U251 CNS was greater than 100 µM in each case. Also, the TGI in the test on IGROV1 ovarian, in the test on T-47D breast, in the test on UO-31 renal and with SK-MEL-5 melanoma was greater than 100 µM in each case.
